Measured values published in US10597391B2, “Urea-containing isoxazole derivatives as FXR agonists and methods of use thereof” (Enanta Pharmaceuticals, Inc., priority 2016, dated 2020).

Biological target: T1, human FXR (NR1H4) (Homo sapiens, UniProt Q96RI1)
T1 sequence (Q96RI1 1-486): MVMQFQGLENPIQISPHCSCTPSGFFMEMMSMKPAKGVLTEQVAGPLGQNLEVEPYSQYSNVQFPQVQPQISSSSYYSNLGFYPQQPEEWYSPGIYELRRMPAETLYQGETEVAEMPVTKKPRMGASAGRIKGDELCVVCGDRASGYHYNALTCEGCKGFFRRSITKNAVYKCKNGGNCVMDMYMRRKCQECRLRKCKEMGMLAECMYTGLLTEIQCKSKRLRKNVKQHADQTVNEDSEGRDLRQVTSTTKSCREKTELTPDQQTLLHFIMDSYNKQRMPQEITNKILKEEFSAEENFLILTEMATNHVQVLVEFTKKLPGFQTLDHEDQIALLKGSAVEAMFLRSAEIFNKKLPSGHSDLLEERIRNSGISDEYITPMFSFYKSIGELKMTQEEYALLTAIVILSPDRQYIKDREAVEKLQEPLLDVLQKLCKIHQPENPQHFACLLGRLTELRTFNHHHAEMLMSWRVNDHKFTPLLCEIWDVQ
Assay: Human FXR (NR1H4) Assay: Gal4 promoter driven luciferase reporter transactivation in CHO cells (Indigo Bioscience kit IB00601)
Type: cell-based
Conditions: potency range, Human FXR (NR1H4) reporter assay in CHO cells; read-out: EC50
From the text: Human FXR (NR1H4) Assay Determination of a ligand mediated Gal4 promoter driven transactivation to quantify ligand binding mediated activation of FXR. FXR Reporter Assay kit purchased from Indigo Bioscience (Catalogue number: IB00601) to determine the potency and efficacy of compounds that can induce FXR activation. The principle application of this reporter assay system is to quantify functional activity of human FXR. The assay utilizes non-human mammalian cells, CHO (Chinese hamster ovary) cells engineered to express human NR1H4 protein (referred to as FXR). Reporter cells also incorporate the cDNA encoding beetle luciferase which catalyzes the substrates and yields photon emission. Luminescence intensity of the reaction is quantified using a plate-reading luminometer, Envision. Reporter Cells include the luciferase reporter gene functionally linked to an FXR responsive promoter. Thus, quantifying changes in luciferase expression in the treated reporter cells provides a sensitive surrogate measure of the changes in FXR activity. […] The assay is according to the manufacturer's instructions. […] Retrieve Reporter Cells from −80° C. storage. Perform a rapid thaw of the frozen cells by transferring a 10 ml volume of 37° C. cell recovery medium into the tube of frozen cells. […] Retrieve the tube of Reporter Cell Suspension from the water bath. […] Dispense 90 μl of cell suspension into each well of the 96-well Assay Plate. Transfer the plate into 37° C. incubator, allowing the cells adherent to the bottom of the well. Dilute compounds in Dilution Plate (DP), and administrate to cells at Assay Plate (AP). […] Cells were incubated for additional 22 hours before luciferase activities were measured. Thirty minutes before intending to quantify FXR activity, remove Detection Substrate and Detection Buffer from the refrigerator and place them in a low-light area so that they may equilibrate to room temperature. Remove the plate's lid and discard all media contents by ejecting it into an appropriate waste container. Gently tap the inverted plate onto a clean absorbent paper towel to remove residual droplets. Cells will remain tightly adhered to well bottoms. Add 100 μl of luciferase detection reagent to each well of the assay plate. Allow the assay plate to rest at room temperature for at least 5 minutes following the addition of LDR. Set the instrument (Envision) to perform a single 5 second “plate shake” prior to reading the first assay well. Read time may be 0.5 second (500 mSec) per well.

Row | SMILES | EC50 [µM]
1 | O=C(Nc1cccc(F)c1)N1C2CCC1CC(OCc1c(-c3c(Cl)cccc3Cl)noc1C1CC1)C2 (centres unmarked) [Example 1] | < 0.01
2 | N#Cc1cccc(NC(=O)N2C3CCC2CC(OCc2c(-c4c(Cl)cccc4Cl)noc2C2CC2)C3)c1 (centres unmarked) [Example 3] | < 0.01
3 | CC(C)(C)c1cccc(NC(=O)N2C3CCC2CC(OCc2c(-c4c(Cl)cccc4Cl)noc2C2CC2)C3)c1 (centres unmarked) [Example 4] | 0.01 to 0.1
4 | CN1CCC(c2cccc(NC(=O)N3C4CCC3CC(OCc3c(-c5c(Cl)cccc5Cl)noc3C3CC3)C4)c2)CC1 (centres unmarked) [Example 5] | 0.01 to 0.1
5 | O=C(Nc1ccccc1C(F)(F)F)N1C2CCC1CC(OCc1c(-c3c(Cl)cccc3Cl)noc1C1CC1)C2 (centres unmarked) [Example 6] | 0.1 to 1
6 | O=C(Nc1ccccc1F)N1C2CCC1CC(OCc1c(-c3c(Cl)cccc3Cl)noc1C1CC1)C2 (centres unmarked) [Example 7] | 0.01 to 0.1
7 | O=C(Nc1ccc(C(F)(F)F)cc1)N1C2CCC1CC(OCc1c(-c3c(Cl)cccc3Cl)noc1C1CC1)C2 (centres unmarked) [Example 8] | 0.1 to 1
8 | N#Cc1ccc(NC(=O)N2C3CCC2CC(OCc2c(-c4c(Cl)cccc4Cl)noc2C2CC2)C3)cc1 (centres unmarked) [Example 9] | 0.01 to 0.1
9 | O=C(Nc1cc(F)c(F)c(F)c1)N1C2CCC1CC(OCc1c(-c3c(Cl)cccc3Cl)noc1C1CC1)C2 (centres unmarked) [Example 10] | 0.01 to 0.1
10 | O=C(Nc1cc(F)cc(C(F)(F)F)c1)N1C2CCC1CC(OCc1c(-c3c(Cl)cccc3Cl)noc1C1CC1)C2 (centres unmarked) [Example 11] | < 0.01
11 | Cn1cc(-c2cccc(NC(=O)N3C4CCC3CC(OCc3c(-c5c(Cl)cccc5Cl)noc3C3CC3)C4)c2)cn1 (centres unmarked) [Example 13] | < 0.01
12 | O=C(Nc1cc(-c2cccnc2)cc(C(F)(F)F)c1)N1C2CCC1CC(OCc1c(-c3c(Cl)cccc3Cl)noc1C1CC1)C2 (centres unmarked) [Example 14] | < 0.01
13 | O=C(Nc1cccnc1)N1C2CCC1CC(OCc1c(-c3c(Cl)cccc3Cl)noc1C1CC1)C2 (centres unmarked) [Example 15] | < 0.01
14 | O=C(Nc1ccccn1)N1C2CCC1CC(OCc1c(-c3c(Cl)cccc3Cl)noc1C1CC1)C2 (centres unmarked) [Example 16] | 0.1 to 1
15 | O=C(Nc1ccncc1)N1C2CCC1CC(OCc1c(-c3c(Cl)cccc3Cl)noc1C1CC1)C2 (centres unmarked) [Example 17] | 0.01 to 0.1
16 | O=C(Nc1cncc(C(F)(F)F)c1)N1C2CCC1CC(OCc1c(-c3c(Cl)cccc3Cl)noc1C1CC1)C2 (centres unmarked) [Example 18] | < 0.01
17 | O=C(Nc1cccc2ccccc12)N1C2CCC1CC(OCc1c(-c3c(Cl)cccc3Cl)noc1C1CC1)C2 (centres unmarked) [Example 19] | 0.01 to 0.1
18 | O=C(Nc1ccc2ccccc2c1)N1C2CCC1CC(OCc1c(-c3c(Cl)cccc3Cl)noc1C1CC1)C2 (centres unmarked) [Example 20] | 0.01 to 0.1
19 | O=C(Nc1cnc2ccccc2c1)N1C2CCC1CC(OCc1c(-c3c(Cl)cccc3Cl)noc1C1CC1)C2 (centres unmarked) [Example 21] | 0.01 to 0.1
20 | O=C(Nc1ccc2ncccc2c1)N1C2CCC1CC(OCc1c(-c3c(Cl)cccc3Cl)noc1C1CC1)C2 (centres unmarked) [Example 22] | < 0.01
21 | O=C(Nc1nc2ccccc2s1)N1C2CCC1CC(OCc1c(-c3c(Cl)cccc3Cl)noc1C1CC1)C2 (centres unmarked) [Example 23] | 0.01 to 0.1
22 | NS(=O)(=O)c1cccc(NC(=O)N2C3CCC2CC(OCc2c(-c4c(Cl)cccc4Cl)noc2C2CC2)C3)c1 (centres unmarked) [Example 24] | 0.1 to 1
23 | CN(C)S(=O)(=O)c1cccc(NC(=O)N2C3CCC2CC(OCc2c(-c4c(Cl)cccc4Cl)noc2C2CC2)C3)c1 (centres unmarked) [Example 25] | < 0.01
24 | O=C(NC1CCCCC1)N1C2CCC1CC(OCc1c(-c3c(Cl)cccc3Cl)noc1C1CC1)C2 (centres unmarked) [Example 30] | 0.01 to 0.1
25 | N#Cc1cccc(NC(=O)N2C3CCC2CC(NCc2c(-c4c(Cl)cccc4Cl)noc2C2CC2)C3)c1 (centres unmarked) [Example 93] | 0.01 to 0.1
26 | O=C(Nc1cccc(C(F)(F)F)c1)N1C2CCC1CC(NCc1c(-c3ccccc3OC(F)(F)F)noc1C1CC1)C2 (centres unmarked) [Example 121] | 0.01 to 0.1
27 | CCOC(=O)c1cccc(NC(=O)N2C3CCC2CC(OCc2c(-c4c(Cl)cccc4Cl)noc2C2CC2)C3)c1 (centres unmarked) [Example 181] | < 0.01

Row | SMILES | EC50 [µM]
28 | CCOC(=O)c1ccc(NC(=O)N2C3CCC2CC(OCc2c(-c4c(Cl)cccc4Cl)noc2C2CC2)C3)cc1 (centres unmarked) [Example 182] | 0.01 to 0.1
29 | O=C(O)c1cccc(NC(=O)N2C3CCC2CC(OCc2c(-c4c(Cl)cccc4Cl)noc2C2CC2)C3)c1 (centres unmarked) [Example 183] | 0.1 to 1
30 | O=C(O)c1ccc(NC(=O)N2C3CCC2CC(OCc2c(-c4c(Cl)cccc4Cl)noc2C2CC2)C3)cc1 (centres unmarked) [Example 184] | < 0.01
31 | O=C(Nc1cccc(-c2nnn[nH]2)c1)N1C2CC[C@H]1CC(OCc1c(-c3c(Cl)cccc3Cl)noc1C1CC1)C2 (some centres unmarked) [Example 185] | 0.1 to 1
32 | Cn1nnnc1-c1cccc(NC(=O)N2C3CCC2CC(OCc2c(-c4c(Cl)cccc4Cl)noc2C2CC2)C3)c1 (centres unmarked) [Example 186] | 0.01 to 0.1
33 | Cn1nnc(-c2cccc(NC(=O)N3C4CCC3CC(OCc3c(-c5c(Cl)cccc5Cl)noc3C3CC3)C4)c2)n1 (centres unmarked) [Example 187] | 0.01 to 0.1
34 | O=C(Nc1ccc(C(F)F)cc1)N1C2CCC1CC(OCc1c(-c3c(Cl)cccc3Cl)noc1C1CC1)C2 (centres unmarked) [Example 189] | 0.01 to 0.1
35 | COC(=O)c1ccc(NC(=O)N2C3CCC2CC(OCc2c(-c4c(Cl)cccc4Cl)noc2C2CC2)C3)c(OC)c1 (centres unmarked) [Example 190] | 0.01 to 0.1
36 | COc1cc(C(=O)O)ccc1NC(=O)N1C2CCC1CC(OCc1c(-c3c(Cl)cccc3Cl)noc1C1CC1)C2 (centres unmarked) [Example 192] | < 0.01
37 | COC(=O)c1ccc(NC(=O)N2C3CCC2CC(OCc2c(-c4c(Cl)cccc4Cl)noc2C2CC2)C3)cc1C(F)(F)F (centres unmarked) [Example 194] | < 0.01
38 | O=C(O)c1ccc(NC(=O)N2C3CCC2CC(OCc2c(-c4c(Cl)cccc4Cl)noc2C2CC2)C3)cc1C(F)(F)F (centres unmarked) [Example 195] | 0.01 to 0.1
39 | COC(=O)c1ccc(NC(=O)N2C3CCC2CC(OCc2c(-c4c(Cl)cccc4Cl)noc2C2CC2)C3)cc1F (centres unmarked) [Example 196] | < 0.01
40 | O=C(O)c1ccc(NC(=O)N2C3CCC2CC(OCc2c(-c4c(Cl)cccc4Cl)noc2C2CC2)C3)cc1F (centres unmarked) [Example 197] | 0.01 to 0.1
41 | COC(=O)c1c(F)cc(NC(=O)N2C3CCC2CC(OCc2c(-c4c(Cl)cccc4Cl)noc2C2CC2)C3)cc1F (centres unmarked) [Example 198] | < 0.01
42 | O=C(O)c1c(F)cc(NC(=O)N2C3CCC2CC(OCc2c(-c4c(Cl)cccc4Cl)noc2C2CC2)C3)cc1F (centres unmarked) [Example 199] | 0.1 to 1
43 | COC(=O)c1ccc(NC(=O)N2C3CCC2CC(OCc2c(-c4c(Cl)cccc4Cl)noc2C2CC2)C3)cc1-c1ccccc1 (centres unmarked) [Example 200] | < 0.01
44 | O=C(O)c1ccc(NC(=O)N2C3CCC2CC(OCc2c(-c4c(Cl)cccc4Cl)noc2C2CC2)C3)cc1-c1ccccc1 (centres unmarked) [Example 201] | < 0.01
45 | O=C(O)c1cnc2ccc(NC(=O)N3C4CCC3CC(OCc3c(-c5c(Cl)cccc5Cl)noc3C3CC3)C4)cc2c1 (centres unmarked) [Example 211] | 0.1 to 1
46 | COC(=O)c1ccc(NC(=O)N2C3CCC2CC(OCc2c(-c4c(Cl)cccc4Cl)noc2C2CC2)C3)cn1 (centres unmarked) [Example 212] | < 0.01
47 | O=C(O)c1ccc(NC(=O)N2C3CCC2CC(OCc2c(-c4c(Cl)cccc4Cl)noc2C2CC2)C3)cn1 (centres unmarked) [Example 213] | 0.1 to 1
48 | O=C(c1cccc(NC(=O)N2C3CCC2CC(OCc2c(-c4c(Cl)cccc4Cl)noc2C2CC2)C3)c1)N1CCOCC1 (centres unmarked) [Example 214] | 0.01 to 0.1
49 | CN(C)C(=O)c1cccc(NC(=O)N2C3CCC2CC(OCc2c(-c4c(Cl)cccc4Cl)noc2C2CC2)C3)c1 (centres unmarked) [Example 215] | < 0.01
50 | CC(C)(C)c1ccc(S(=O)(=O)NC(=O)c2cccc(NC(=O)N3C4CCC3CC(OCc3c(-c5c(Cl)cccc5Cl)noc3C3CC3)C4)c2)cc1 (centres unmarked) [Example 217] | > 1
51 | CN(C)S(=O)(=O)NC(=O)c1cccc(NC(=O)N2C3CCC2CC(OCc2c(-c4c(Cl)cccc4Cl)noc2C2CC2)C3)c1 (centres unmarked) [Example 219] | 0.1 to 1
52 | CCOC(=O)c1cccc(NC(=O)N2C3CCC2CC(OCc2c(-c4ccccc4OC(F)(F)F)noc2C2CC2)C3)c1 (centres unmarked) [Example 227] | 0.01 to 0.1
53 | CCOC(=O)c1ccc(NC(=O)N2C3CCC2CC(OCc2c(-c4ccccc4OC(F)(F)F)noc2C2CC2)C3)cc1 (centres unmarked) [Example 228] | 0.1 to 1
